Laboratory results from patent publication US11834414B2, “1-methyl-4-[(4-phenylphenyl)sulfonylmethyl]cyclohexyanol and 1-methyl-4-[[4-(2-pyridyl)phenyl]sulfonylmethyl]cyclohexanol compounds and their therapeutic use” (Modern Biosciences Limited, priority 2018, dated 2023).
“Also recorded” adds a separate entry of the source.

Test: Metabolite identification in rats
Type: in vivo, Han Wistar rats
Conditions: rat, 1 mg/kg intravenous, up to 24 hours
Description: The formation of metabolites in rats was assessed to determine the propensity of the compounds to form a biaryl metabolite.
The corresponding sulfonamide compounds (for example, reference compound HMC-C-01-A) give rise to a sulphonamide metabolite which is persistent and has a long half-life. In addition, the biaryl sulphonamide metabolite acts as an inducer of metabolism in rats, which may complicate the assessment of toxicity in rodents. Therefore, the lower the propensity to form a biaryl sulphonamide metabolite, the greater the potential suitability of the compound for development for human use.
Plasma samples from Han Wistar rats, aged 8-12 weeks, were collected from animals dosed with test compound. Test compounds at a dose of 1 mg/kg were administered intravenously as a solution in 5% NMP, 5% Solutol HS, and 90% normal saline. Animals were given free access to food throughout the study. Blood samples were taken under light isoflurane anaesthesia at 12 time points following an intravenous dose (0.033, 0.1, 0.167, 0.25, 0.5, 1, 2, 4, 6, 8, 12, and 24 hours). The blood samples were collected from a set of three rats at each time point in labelled micro centrifuge tube containing K2EDTA as anticoagulant. Plasma samples were separated by centrifugation of whole blood.
All samples were processed for analysis by protein precipitation using acetonitrile and analysed with a fit-for-purpose LC-MS/MS method.
At the completion of the study, the results were expressed as detection of the metabolite and time course of formation.

In the case of `C[C@]1(O)CC[C@H](NS(=O)(=O)c2ccc(-c3ccc(Cl)cc3C#N)cc2)CC1` [HMC-C-01-A, reference compound], the “formation of biaryl sulphonamide metabolite (MET-001) in plasma” value is reported as “formed in large quantities and accumulated over time; also recorded: in large quantities (which accumulated over time)”.
